Experimental data as given in US9102591B2, “Benzamides” (H. Lundbeck A/S, priority 2012, dated 2015).

target: P2X7 receptor (Homo sapiens (Human), UniProt Q99572); experiment: P2X7 FLIPR assay (BzATP-stimulated calcium fluorescence, antagonist IC50); format: cell-based
Procedure, shortened: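 Cells expressing P2X7 receptor (human, rat or mouse), plated 24 hours earlier in low-serum medium, loaded with Fluo-4 NW dye (30 min 37° C, 30 min room temperature).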

P2X7 receptor, sequence (Q99572 whole entry): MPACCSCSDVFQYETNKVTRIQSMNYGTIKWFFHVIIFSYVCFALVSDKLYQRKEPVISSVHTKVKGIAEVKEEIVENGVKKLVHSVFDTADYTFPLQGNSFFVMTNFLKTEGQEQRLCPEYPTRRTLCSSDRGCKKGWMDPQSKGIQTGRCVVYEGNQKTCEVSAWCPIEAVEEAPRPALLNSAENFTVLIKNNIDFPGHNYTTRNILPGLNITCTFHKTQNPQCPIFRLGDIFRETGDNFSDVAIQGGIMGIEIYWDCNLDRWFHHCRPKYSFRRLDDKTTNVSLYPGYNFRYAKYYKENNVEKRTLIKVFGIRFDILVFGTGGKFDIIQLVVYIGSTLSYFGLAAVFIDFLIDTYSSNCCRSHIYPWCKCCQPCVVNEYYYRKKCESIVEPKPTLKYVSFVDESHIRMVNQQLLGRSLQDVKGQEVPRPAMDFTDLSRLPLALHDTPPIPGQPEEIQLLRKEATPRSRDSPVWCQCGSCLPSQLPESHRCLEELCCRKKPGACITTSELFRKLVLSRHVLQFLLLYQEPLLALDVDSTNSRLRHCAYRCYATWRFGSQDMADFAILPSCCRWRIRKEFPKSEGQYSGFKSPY

| IC50 | SMILES |
| --- | --- |
| 0.0014 µM | O=C(NCC1(c2ccc(C(F)(F)F)nc2)CCC(F)(F)CC1)c1cccc(F)c1Cl [2-chloro-N-((4,4-difluoro-1-(6-(trifluoromethyl)pyridin-3-yl)cyclohexyl)methyl)-3-fluorobenzamide] |
| 0.0071 µM | COc1cccc(C(=O)NCC2(c3ccc(C(F)(F)F)nc3)CCC(F)(F)CC2)c1Cl [2-chloro-N-((4,4-difluoro-1-(6-(trifluoromethyl)pyridin-3-yl)cyclohexyl)methyl)-3-methoxybenzamide] |
| 0.00054 µM | Cc1cccc(C(=O)NCC2(c3ccc(C(F)(F)F)nc3)CCC(F)(F)CC2)c1Cl [2-chloro-N-((4,4-difluoro-1-(6-(trifluoromethyl)pyridin-3-yl)cyclohexyl)methyl)-3-methylbenzamide] |
| 1.8 µM | CS(=O)(=O)c1ccc(C(=O)NCC2(c3ccc(C(F)(F)F)nc3)CCC(F)(F)CC2)c(Cl)c1 [2-chloro-N-((4,4-difluoro-1-(6-(trifluoromethyl)pyridin-3-yl)cyclohexyl)methyl)-4-(methylsulfonyl)benzamide] |
| 0.002 µM | O=C(NCC1(c2ccc(C(F)(F)F)nc2)CCC(F)(F)CC1)c1ccccc1Cl [2-chloro-N-((4,4-difluoro-1-(6-(trifluoromethyl)pyridin-3-yl)cyclohexyl)methyl)benzamide] |
| 0.0053 µM | O=C(NCC1(c2ccc(F)nc2)CCC(F)(F)CC1)c1cccc(F)c1Cl [2-chloro-N-((4,4-difluoro-1-(6-fluoropyridin-3-yl)cyclohexyl)methyl)-3-fluorobenzamide] |
| 0.0087 µM | CS(=O)(=O)c1ccc(Cl)c(C(=O)NCC2(c3ccc(F)nc3)CCC(F)(F)CC2)c1 [2-chloro-N-((4,4-difluoro-1-(6-fluoropyridin-3-yl)cyclohexyl)methyl)-5-(methylsulfonyl)benzamide] |
| 0.00083 µM | COc1ccc(Cl)c(C(=O)NCC2(c3ccc(F)nc3)CCC(F)(F)CC2)c1 [2-chloro-N-((4,4-difluoro-1-(6-fluoropyridin-3-yl)cyclohexyl)methyl)-5-methoxybenzamide] |
| 0.025 µM | O=C(NCC1(c2ccc(F)nc2)CCC(F)(F)CC1)c1ccccc1Cl [2-chloro-N-((4,4-difluoro-1-(6-fluoropyridin-3-yl)cyclohexyl)methyl)benzamide] |
| 2 µM | Cc1ncc(C2(C(C)NC(=O)c3cccc(F)c3Cl)CCC(F)(F)CC2)cn1 (centres unmarked) [2-chloro-N-[1-[4,4-difluoro-1-(2-methylpyrimidin-5-yl)cyclohexyl]ethyl]-3-fluoro-benzamide] |
| 1.4 µM | Cc1ncc(C2(C(C)NC(=O)c3c(F)cccc3Cl)CCC(F)(F)CC2)cn1 (centres unmarked) [2-chloro-N-[1-[4,4-difluoro-1-(2-methylpyrimidin-5-yl)cyclohexyl]ethyl]-6-fluoro-benzamide] |
| 1.6 µM | Cc1ncc(C2(C(C)NC(=O)c3ccccc3Cl)CCC(F)(F)CC2)cn1 (centres unmarked) [2-chloro-N-[1-[4,4-difluoro-1-(2-methylpyrimidin-5-yl)cyclohexyl]ethyl]benzamide] |
| 1.3 µM | Cc1ncc(C(CNC(=O)c2ccccc2Cl)c2ccncc2)cn1 (centres unmarked) [2-chloro-N-[2-(2-methylpyrimidin-5-yl)-2-(4-pyridyl)ethyl]benzamide] |
| 0.083 µM | Cc1ncc(C(CNC(=O)c2cccc(F)c2Cl)C2CCC(F)(F)CC2)cn1 (centres unmarked) [2-chloro-N-[2-(4,4-difluorocyclohexyl)-2-(2-methylpyrimidin-5-yl)ethyl]-3-fluoro-benzamide] |
| 0.15 µM | Cc1ncc(C(CNC(=O)c2c(F)cccc2Cl)C2CCC(F)(F)CC2)cn1 (centres unmarked) [2-chloro-N-[2-(4,4-difluorocyclohexyl)-2-(2-methylpyrimidin-5-yl)ethyl]-6-fluoro-benzamide] |
| 0.09 µM | Cc1ncc(C(CNC(=O)c2ccccc2Cl)C2CCC(F)(F)CC2)cn1 (centres unmarked) [2-chloro-N-[2-(4,4-difluorocyclohexyl)-2-(2-methylpyrimidin-5-yl)ethyl]benzamide] |
| 0.015 µM | O=C(NCC(c1ccc(Cl)cc1)C1CCOCC1)c1cccc(F)c1Cl (centres unmarked) [2-chloro-N-[2-(4-chlorophenyl)-2-tetrahydropyran-4-yl-ethyl]-3-fluoro-benzamide] |
